# According to ChEMBL document CHEMBL1142783, “Hydrophobicity in the design of P2/P2' tetrahydropyrimidinone HIV protease inhibitors” (Bioorg Med Chem Lett, 2005):
# Molecular target: Human immunodeficiency virus type 1 protease (Human immunodeficiency virus 1) (UniProt Q72874)
# Experiment: Concentration which reduced the concentration of HIV viral RNA by 90% from the level measured in an untreated infected culture
# Assay type: functional
row,Log 1/IC90,SMILES
1,6.96,O=C1N(c2cccc(CO)c2)[C@H](CCc2ccccc2)[C@@H](O)[C@@H](Cc2ccccc2)N1c1cccc(CO)c1
2,5.44,O=C1N(c2ccc(CO)cc2)[C@H](CCc2ccccc2)[C@@H](O)[C@@H](Cc2ccccc2)N1c1ccc(CO)cc1
3,6.48,CNc1cccc(N2C(=O)N(c3cccc(NC)c3)[C@H](Cc3ccccc3)[C@H](O)[C@H]2CCc2ccccc2)c1
4,6.31,NC(=O)c1cc(N2C(=O)N(c3ccc(F)c(C(N)=O)c3)[C@H](Cc3ccccc3)[C@H](O)[C@H]2CCc2ccccc2)ccc1F
5,6.27,Nc1ccc(N2C(=O)N(c3ccc(N)c(F)c3)[C@H](Cc3ccccc3)[C@H](O)[C@H]2CCc2ccccc2)cc1F
6,7.46,NC(=O)c1cccc(N2C(=O)N(c3cccc(C(N)=O)c3)[C@H](Cc3ccccc3)[C@H](O)[C@H]2CCc2ccccc2)c1
7,5.8,N#Cc1cccc(N2C(=O)N(c3cccc(C#N)c3)[C@H](Cc3ccccc3)[C@H](O)[C@H]2CCc2ccccc2)c1
8,7.44,Nc1cc(N2C(=O)N(c3ccc(F)c(N)c3)[C@H](Cc3ccccc3)[C@H](O)[C@H]2CCc2ccccc2)ccc1F
9,7.31,N=C(NO)c1cccc(N2C(=O)N(c3cccc(/C(N)=C\O)c3)[C@H](Cc3ccccc3)[C@H](O)[C@H]2CCc2ccccc2)c1
10,6.44,Nc1cccc(N2C(=O)N(c3cccc(N)c3)[C@H](Cc3ccccc3)[C@H](O)[C@H]2CCc2ccccc2)c1
11,5.55,O=C1N(c2ccccc2)[C@H](CCc2ccccc2)[C@@H](O)[C@@H](Cc2ccccc2)N1c1ccccc1
12,6.94,O=C1N(c2cccc(O)c2)[C@H](CCc2ccccc2)[C@@H](O)[C@@H](Cc2ccccc2)N1c1cccc(O)c1
